From patent US6043058A, “Preparation of cyclic depsipeptide compounds and a novel cyclic depsipeptide” (Maiji Seika Kaisha Ltd., priority 1996, dated 2000)

Columns and labels:
fowl roundworms = assay: Anthelmintic activity; assay type: in vivo; details: parasite not named at this place; stated in words only
[1] = Classification by basicity, acidity or neutrality; assay type: physicochemical
Source text: (§1) Physico-chemical properties of PF […] substance, PF […] substance and PF […] substance thus obtained are given below: […]

[2] = Solubilities (physico-chemical properties); assay type: physicochemical
Source text: as §1

SMILES: CC(C)C[C@H]1C(=O)O[C@H](C)C(=O)N(C)[C@@H](CC(C)C)C(=O)O[C@H](C)C(=O)N(C)[C@@H](CC(C)C)C(=O)O[C@H](C)C(=O)N(C)[C@@H](CC(C)C)C(=O)O[C@H](C)C(=O)N1C [PF 1022F substance]
- Anthelmintic activities (general statement) (fowl roundworms): having anthelmintic activities
- Classification by basicity, acidity or neutrality [1]: Neutral substance
- Solubility in organic solvents ([2]; chloroform, acetone, ethyl acetate, methanol and dimethylsulfoxide): Soluble
- Solubility in n-hexane ([2]; solvent: n-hexane): Insoluble
- Solubility in water ([2]; solvent: water): Insoluble
